Assay results as given in patent publication US4885307A, “Derivatives of 1-arylsulphonyl-1,5-dihydro-2H-pyrrol-2-one, and compositions containing them” (Roussel Uclaf, priority 1987, dated 1989).

System: male mice (Charles Rivers CD1)
Assay: Learning and memorizing: anti-amnesiac effect on electric shock-induced retrograde amnesia (two-compartment luminous/dark box avoidance)
Format: in vivo
Conditions: for Percentage increase in latency time in comparison with the controls: 3 hours after treatment, * = statistically different in comparison with controls; for anti-amnesic activity: at doses between 50 and 200 mg/kg, oral route
Text: There were used male mice (Charles Rivers CD1) weighing 25-30 g. The animals were placed in the luminous part of a box with two compartments communicating by an opening [F. Barzaghi and G. Galliani, Brit. J. Pharmacol. 86, p.
At the instant when the mouse passes from the luminous compartment to the dark compartment, the opening closes and it is immediately punished by an electric discharge to the paws. The animal submitted to this procedure learns to memorize the punishment. In fact, if it is put back in the luminous compartment, it will thus avoid crossing the opening and reentering the dark compartment.
In order to induce a retrograde amnesia, the animals are submitted immediately after learning to an electric shock. After the electric shock, the products are administered by oral route at different doses.
There were used from 10 to 50 animals per dose.
The anti-amnesiac effect of the products is evaluated 3 hours after the treatment, using the same procedure as that utilized for the acquisition.
The time taken by the animal to return to the dark chamber (time limit 180 seconds) is used as evaluation parameter.
The active products are those which cause a significant increase in the latency time with a bell-shaped dose-response curve.
The results are expressed as percentages of the increase of the latency time in comparison with the corresponding controls.

Row | SMILES | Percentage increase in latency time in comparison with the controls (50 mg/kg per os) [%] | Percentage increase in latency time in comparison with the controls (100 mg/kg per os) [%] | Percentage increase in latency time in comparison with the controls (200 mg/kg per os) [%] | anti-amnesic activity
1 | NC(=O)CN1CCCC1=O [PIRACETAM, reference compound] | 10 | 48 | 20 | –
2 | CCCCOC1C=CC(=O)N1S(=O)(=O)c1cccc(C(F)(F)F)c1 (stereo not drawn) [Example 12, 1-(3-trifluoromethyl-benzenesulphonyl)-5-n-butyloxy-1,5-dihydro-2H-pyrrol-2-one] | 20 | 75 | 92 | have shown an anti-amnesic activity
3 | CCCCCOC1C=CC(=O)N1S(=O)(=O)c1ccccc1 (stereo not drawn) [Example 6, 1-benzenesulphonyl-1,5-dihydro-5-n-pentyloxy-2H-pyrrol-2-one] | 73 | 92 | 76 | have shown an anti-amnesic activity
4 | CCCCOC1C=CC(=O)N1S(=O)(=O)c1ccccc1 (stereo not drawn) [Example 4, 1-benzenesulphonyl-5-n-butoxy-1,5-dihydro-2H-pyrrol-2-one] | 54 | 96 | 79 | have shown an anti-amnesic activity
